Data published in ChEMBL document CHEMBL4823274, “Discovery of chiral N-2'-aryletheryl-1'-alkoxy-ethyl substituted arylisoquinolones with anti-inflammatory activity from the nucleophilic addition reactions of the thiophenols and oxazolinium” (Eur J Med Chem, 2021).
The source made the active and inactive calls. No cut-off for these calls is given here.

Experiments:
[1] = Cytotoxicity against mouse RAW264.7 cells assessed as cell viability at 0.5 uM incubated for 24 hrs by CCK8 assay; assay type: cell-based; settings: read-out: Activity
[2] = system: RAW264.7; experiment: Antiinflammatory activity against LPS-stimulated mouse RAW264.7 cells assessed inhibition of TNFalpha release at 0.5 uM incubated for 24 hrs in presence of LPS by ELISA; assay type: functional
[3] = system: RAW264.7; experiment: Antiinflammatory activity against LPS-stimulated mouse RAW264.7 cells assessed inhibition of TNFalpha release incubated for 24 hrs in presence of LPS by ELISA; assay type: functional, cell-based; settings: RAW264.7, 24 h
[4] = Cytotoxicity against mouse RAW264.7 cells assessed as reduction in cell viability incubated for 24 hrs by CCK8 assay; assay type: cell-based
[5] = target: T1, Estrogen receptor (Homo sapiens, UniProt P03372); experiment: Binding affinity to human ERalpha LBD measured after 2 hrs by competitive fluorometric binding assay
T1 sequence (P03372 whole entry): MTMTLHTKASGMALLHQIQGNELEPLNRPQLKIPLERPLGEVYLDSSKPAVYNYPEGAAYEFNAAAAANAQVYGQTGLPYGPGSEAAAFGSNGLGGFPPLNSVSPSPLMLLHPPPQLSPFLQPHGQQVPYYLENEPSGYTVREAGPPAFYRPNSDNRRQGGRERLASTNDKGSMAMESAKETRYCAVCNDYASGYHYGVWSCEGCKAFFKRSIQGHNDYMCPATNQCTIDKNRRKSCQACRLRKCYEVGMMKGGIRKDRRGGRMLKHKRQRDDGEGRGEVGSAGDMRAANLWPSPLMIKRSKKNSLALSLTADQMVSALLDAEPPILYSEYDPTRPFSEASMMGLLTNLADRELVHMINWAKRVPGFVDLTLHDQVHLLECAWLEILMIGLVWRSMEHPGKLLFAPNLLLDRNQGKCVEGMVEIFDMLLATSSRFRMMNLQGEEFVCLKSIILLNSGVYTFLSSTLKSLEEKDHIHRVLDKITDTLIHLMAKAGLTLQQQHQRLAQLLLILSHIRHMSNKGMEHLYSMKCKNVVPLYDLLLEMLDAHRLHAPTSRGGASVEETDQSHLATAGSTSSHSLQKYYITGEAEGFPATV

[6] = target: T2, Estrogen receptor (Homo sapiens) (UniProt P03372); experiment: Binding affinity to human ERalpha LBD measured after 2 hrs by competitive fluorometric binding assay relative to 17beta-estradiol
T2 sequence (whole entry): T1 sequence (P03372 whole entry)

[7] = target: T3, Estrogen receptor beta (Homo sapiens, UniProt Q92731); experiment: Binding affinity to human ERbeta LBD measured after 2 hrs by competitive fluorometric binding assay relative to 17beta-estradiol
T3 sequence (Q92731 whole entry, the tested form may be a part): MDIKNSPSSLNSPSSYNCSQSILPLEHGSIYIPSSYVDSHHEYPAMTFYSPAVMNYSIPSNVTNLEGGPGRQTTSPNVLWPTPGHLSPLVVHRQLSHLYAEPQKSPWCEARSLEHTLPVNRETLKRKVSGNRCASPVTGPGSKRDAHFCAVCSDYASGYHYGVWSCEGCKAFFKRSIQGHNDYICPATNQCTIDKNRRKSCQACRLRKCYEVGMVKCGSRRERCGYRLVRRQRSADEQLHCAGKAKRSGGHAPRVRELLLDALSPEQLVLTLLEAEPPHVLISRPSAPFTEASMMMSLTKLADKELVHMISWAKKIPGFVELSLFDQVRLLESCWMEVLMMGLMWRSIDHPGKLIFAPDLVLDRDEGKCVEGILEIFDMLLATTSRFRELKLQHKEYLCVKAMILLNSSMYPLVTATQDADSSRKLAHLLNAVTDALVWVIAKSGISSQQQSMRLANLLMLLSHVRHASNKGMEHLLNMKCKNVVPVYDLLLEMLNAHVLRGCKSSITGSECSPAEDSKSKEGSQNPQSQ

[8] = target: T3, Estrogen receptor beta; experiment: Binding affinity to human ERbeta LBD measured after 2 hrs by competitive fluorometric binding assay
[9] = species on record: Homo sapiens; experiment: Selectivity ratio of relative binding affinity for human ERalpha LBD to relative binding affinity for human ERbeta LBD
[10] = system: Mus musculus; experiment: Antiinflammatory activity against DSS-induced ulcerative colitis C57BL/6J mouse model assessed as reduction in fecal occult blood at 30 mg/kg, po administered daily via gavage and measured for 11 days; assay type: functional, organism-based; settings: time 11.0 day
[11] = system: Mus musculus; experiment: Antiinflammatory activity against DSS-induced ulcerative colitis C57BL/6J mouse model assessed as reduction in body weight loss at 30 mg/kg, po administered daily via gavage and measured for 11 days; assay type: functional, organism-based; settings: time 11.0 day
[12] = system: Mus musculus; experiment: Antiinflammatory activity against DSS-induced ulcerative colitis C57BL/6J mouse model assessed as reduction in disease activity index at 30 mg/kg, po administered daily via gavage and measured for 11 days; assay type: functional, organism-based; settings: time 11.0 day
[13] = system: Mus musculus; experiment: Antiinflammatory activity against DSS-induced ulcerative colitis C57BL/6J mouse model assessed as restoration of normal stool consistency at 30 mg/kg, po administered daily via gavage and measured for 11 days; assay type: functional, organism-based; settings: time 11.0 day
[14] = species on record: Homo sapiens; experiment: Selectivity ratio of Ki for human ERalpha LBD to Ki for human ERbeta LBD

Row | SMILES | viability at 24 h, 0.5 µM [1] [%] | inhibition at 0.5 µM [2] [%] | further results
1 | COc1ccc2cc(-c3ccc4c(c3)OCO4)n(C(CSc3ccccc3)OC)c(=O)c2c1OC (centres undefined) | 85.4 | 49.4 | 
2 | COc1ccc(SCC(OC)n2c(-c3ccc4c(c3)OCO4)cc3ccc(OC)c(OC)c3c2=O)cc1 (centres undefined) | 80.8 | -3.4 | 
3 | COc1ccc2cc(-c3ccc4c(c3)OCO4)n(C(CSc3ccccc3Br)OC)c(=O)c2c1OC (centres undefined) | 80.7 | 80.7 | 
4 | COc1ccc2cc(-c3ccc4c(c3)OCO4)n(C(CSc3cccc(Br)c3)OC)c(=O)c2c1OC (centres undefined) | 57 | 36.1 | 
5 | COc1ccc2cc(-c3ccc4c(c3)OCO4)n(C(CSc3ccc([N+](=O)[O-])cc3)OC)c(=O)c2c1OC (centres undefined) | 80.1 | 87.8 | 
6 | COc1ccc2cc(-c3ccc4c(c3)OCO4)n([C@H](CSc3ccc([N+](=O)[O-])cc3)OC)c(=O)c2c1OC |  |  | IC50 [3]: > 2500 nM; CC50 at 24 h [4]: > 2500 nM
7 | COc1ccc2cc(-c3ccc4c(c3)OCO4)n([C@H](COc3ccc([N+](=O)[O-])cc3)OC)c(=O)c2c1OC |  |  | Ki [5]: 17100 nM; RBA [6]: 0.03%; RBA [7]: 0.03%; IC50 [3]: > 10000 nM; Ki [8]: 25600 nM; Ratio [9]: 1; CC50 at 24 h [4]: > 2500 nM
8 | COc1ccc2cc(-c3ccc4c(c3)OCO4)n(C(CSc3ccc(F)cc3)OC)c(=O)c2c1OC (centres undefined) | 77.8 | 77.4 | 
9 | COc1ccc2cc(-c3ccc4c(c3)OCO4)n(C(CSc3ccc(C(F)(F)F)cc3)OC)c(=O)c2c1OC (centres undefined) | 98 | 72.9 | 
10 | COc1ccc2cc(-c3ccc4c(c3)OCO4)n(C(CSc3ccc(Br)cc3)OC)c(=O)c2c1OC (centres undefined) | 70.9 | 84.5 | 
11 | COc1ccc2cc(-c3ccc4c(c3)OCO4)n(C(CSc3cc(C(F)(F)F)cc(C(F)(F)F)c3)OC)c(=O)c2c1OC (centres undefined) | 82.8 | 78.3 | 
12 | COc1ccc2cc3[n+](cc2c1OC)CCc1cc2c(cc1-3)OCO2 [BERBERINE] | 129 | 4.1 | 
13 | COc1ccc2cc(-c3ccc4c(c3)OCO4)n([C@@H](COc3ccc([N+](=O)[O-])cc3)OC)c(=O)c2c1OC |  |  | Activity [10]: Active; Activity [11]: Active; Ki [5]: 2320 nM; RBA [6]: 0.24%; Activity [12]: Active; Activity [13]: Active; RBA [7]: 1.04%; Ratio Ki [14]: 3; IC50 [3]: 14 nM; Ki [8]: 761 nM; Ratio [9]: 0.23; CC50 at 24 h [4]: 1820 nM
14 | COc1ccc2cc(-c3ccc4c(c3)OCO4)n(C(CSc3cccc(C(F)(F)F)c3)OC)c(=O)c2c1OC (centres undefined) | 93.3 | 69.2 | 
15 | COc1ccc2cc(-c3ccc4c(c3)OCO4)n(C(CSc3nc(C)cc(C)n3)OC)c(=O)c2c1OC (centres undefined) | 101 | 69.7 | 
16 | COc1ccc2cc(-c3ccc4c(c3)OCO4)n([C@@H](CSc3ccc([N+](=O)[O-])cc3)OC)c(=O)c2c1OC |  |  | IC50 [3]: 56 nM; CC50 at 24 h [4]: 7040 nM
17 | COc1ccc2cc(-c3ccc4c(c3)OCO4)n(C(CSc3ccc(C)cc3)OC)c(=O)c2c1OC (centres undefined) | 70.4 | 79.6 | 
